Source: patent publication US7129238B2, “Mandelic acid derivatives” (Hoffmann-La Roche Inc., priority 2002, dated 2006)
Counter-ions that a name gives are not always drawn.

Biological target: T1, factor VIIa/tissue factor complex (Homo sapiens, UniProt P08709)
T1 construct: 9 nM of soluble factor VIIa
Assay: inhibition of the amidolytic activity of factor VIIa/tissue factor complex (chromogenic peptide substrate)
Assay type: biochemical
Conditions: soluble factor VIIa, substrate Chromozym-tPA, pH 7.5, room temperature
Method: The measurements were carried out by an automated robotic assay on microtitre plates at room temperature. To this end, 100 μL of a solution of 26 nM of tissue factor, 9 nM of soluble factor VIIa and 8 mM of calcium chloride were added to 25 μL of a solution of the inhibitor in a buffer [pH 7.5, 100 mM, comprising 0.14M NaCl, 0.1M N-(2-hydroxyethyl)piperazine-N′-(2-ethanesulphonic acid) (HEPES), 0.5 mg/l of fatty-acid-free BSA (bovine serum albumin) and 0.05% NaN3] in each well of the plate. After an incubation time of 15 minutes the reaction was started by the addition of 50 μl of chromogenic substrate Chromozym-tPA (3.5 mM, MeSO2-D-Phe-Gly-Arg-paranitroanilide) and the hydrolysis of the substrate was followed spectrophotometrically on a kinetic microtitre plate reader over 10 minutes. Using the plot of the inhibition curves, the Ki values were determined according to the method described in Biochem. J. 55, 1953, 170–171.

T1 sequence (P08709 213-466 limits assumed): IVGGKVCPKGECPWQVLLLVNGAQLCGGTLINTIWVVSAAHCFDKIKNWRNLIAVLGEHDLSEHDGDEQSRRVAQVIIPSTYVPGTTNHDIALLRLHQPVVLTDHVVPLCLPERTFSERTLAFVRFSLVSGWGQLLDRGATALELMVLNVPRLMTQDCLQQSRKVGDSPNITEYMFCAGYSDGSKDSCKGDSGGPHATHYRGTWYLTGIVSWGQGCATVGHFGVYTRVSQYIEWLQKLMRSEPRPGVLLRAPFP
T1 sequence (P08709 61-212 limits assumed): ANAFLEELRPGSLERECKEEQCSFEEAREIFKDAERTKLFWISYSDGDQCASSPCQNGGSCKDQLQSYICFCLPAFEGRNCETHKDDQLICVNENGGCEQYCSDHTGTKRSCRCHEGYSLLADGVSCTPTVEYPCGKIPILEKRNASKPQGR
T1 sequence (P13726 33-295 partner): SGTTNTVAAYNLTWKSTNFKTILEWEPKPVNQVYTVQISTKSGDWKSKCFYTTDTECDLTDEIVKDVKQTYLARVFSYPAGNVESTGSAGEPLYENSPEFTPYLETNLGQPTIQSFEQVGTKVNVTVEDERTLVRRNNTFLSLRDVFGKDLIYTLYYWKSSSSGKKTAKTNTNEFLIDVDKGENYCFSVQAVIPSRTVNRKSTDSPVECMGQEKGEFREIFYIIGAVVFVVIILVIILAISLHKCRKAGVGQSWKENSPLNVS

Q: Which Ki does the source give for `COc1cc(F)c(C(OC)C(=O)NCc2ccc(C(=N)N)cc2)cc1OC` (racemic) [Example 24.3, (RS)-N-(4-carbamimidoyl-benzyl)-2-(2-fluoro-4,5-dimethoxy-phenyl)-2-methoxy-acetamide hydrochloride] here?
A: 2210 nM

Q: For `CCOc1ccc(C(OC)C(=O)NCc2ccc(C(=N)N)cc2)c(F)c1OCC` (racemic) [Example 33.3, (RS)-N-(4-carbamimidoyl-benzyl)-2-(3,4-diethoxy-2-fluoro-phenyl)-2-methoxy-acetamide hydrochloride], which Ki is on record?
A: 490 nM

Q: For `COc1ccc2cc(C(OC)C(=O)NCc3ccc(C(=N)N)cc3)ccc2c1` (racemic) [Example 53.3, (RS)-N-(4-carbamimidoyl-benzyl)-2-methoxy-2-(6-methoxy-naphthalen-2-yl)-acetamide hydrochloride], which Ki is on record?
A: 2260 nM

Q: `COC(C(=O)NCc1ccc(C(=N)N)cc1)c1ccc(OCCc2ccc(F)cc2)cc1F` (racemic) [Example 72.2, (RS)-N-(4-carbamimidoyl-benzyl)-2-{2-fluoro-4-[2-(4-fluoro-phenyl)-ethoxy]-phenyl}-2-methoxy-acetamide hydrochloride] was tested. Which Ki did it give?
A: 2100 nM

Q: Which Ki does the source give for `CCOC(C(=O)NCc1ccc(C(=N)N)cc1OCC(N)=O)c1c(F)cc(OC)cc1F` (racemic) [Example 126.3, (RS)-N-(4-carbamimidoyl-2-carbamoylmethoxy-benzyl)-2-(2,6-difluoro-4-methoxy-phenyl)-2-ethoxy-acetamide hydrochloride] here?
A: 20 nM

Q: `CCOC(C(=O)NCc1ccc(C(=N)N)cc1OCC(=O)NCCOC)c1c(F)cc(OC)cc1F` (racemic) [Example 129, (RS)-N-{4-Carbamimidoyl-2-[(2-methoxy-ethylcarbamoyl)-methoxy]-benzyl}-2-(2,6-difluoro-4-methoxy-phenyl)-2-ethoxy-acetamide hydrochloride] was tested. Which Ki did it give?
A: 21 nM

Q: How did the Ki turn out when `COc1cc(F)c(C(OC)C(=O)NCc2ccc(C(=N)N)cc2OCc2ccccn2)c(F)c1` (racemic) [Example 141, (RS)-N-[4-carbamimidoyl-2-(pyridin-2-ylmethoxy)-benzyl]-2-(2,6-difluoro-4-methoxy-phenyl)-2-methoxy-acetamide hydrochloride] was run?
A: 44 nM

Q: Which Ki does the source give for `CCOC(C(=O)NCc1ccc(C(=N)N)cc1)c1c(F)cc(-c2cnc(N)nc2)cc1F` (racemic) [Example 266, (RS)-2-[4-(2-Amino-pyrimidin-5-yl)-2,6-difluoro-phenyl]-N-(4-carbamimidoyl-benzyl)-2-ethoxy-acetamide hydrochloride] here?
A: 242 nM

Q: For `CCOC(C(=O)NCc1ccc(C(=N)N)cc1)c1c(F)cc(-c2cccnc2)cc1F` (racemic) [Example 267, (RS)-N-(4-Carbamimidoyl-benzyl)-2-(2,6-difluoro-4-pyridin-3-yl-phenyl)-2-ethoxy-acetamide hydrochloridr], which Ki is on record?
A: 371 nM

Q: Which Ki does the source give for `CCOC(C(=O)NCc1ccc(C(=N)N)cc1)c1c(F)cc(-c2ccc(N)cn2)cc1F` (racemic) [Example 269, (RS)-2-[4-(5-Amino-pyridin-2-yl)-2,6-difluoro-phenyl]-N-(4-carbamimidoyl-benzyl)-2-ethoxy-acetamide hydrochloride] here?
A: 320 nM

Q: Which Ki does the source give for `CCOC(C(=O)NCc1ccc(C(=N)N)cc1)c1c(F)cc(-c2ccc(N)nc2)cc1F` (racemic) [Example 271, (RS)-(2-[4-(6-Amino-pyridin-3-yl)-2,6-difluoro-phenyl]-N-(4-carbamimidoyl-benzyl)-2-ethoxy-acetamide hydrochloride] here?
A: 154 nM

Q: `CCOC(C(=O)NCc1ccc(C(=N)N)cc1)c1c(F)cc(OCc2ccccn2)cc1F` (racemic) [Example 294.2, (RS)-N-(4-carbamimidoyl-benzyl)-2-[2,6-difluoro-4-(pyridin-2-ylmethoxy)-phenyl]-2-ethoxy-acetamide hydrochloride] was tested. Which Ki did it give?
A: 586 nM

Q: For `CCOC(C(=O)NCc1ccc(C(=N)N)cc1NCc1ccccc1)c1ccc(OC)cc1F` (racemic) [Example 323, (RS)-N-(2-Benzylamino-4-carbamimidoyl-benzyl)-2-ethoxy-2-(2-fluoro-4-methoxy-phenyl)-acetamide acetate], which Ki is on record?
A: 65 nM

Q: With `CCOC(C(=O)NCc1ccc(C(=N)N)cc1NCC(=O)O)c1ccc(OC)cc1F` (racemic) [Example 329, (RS)-(5-carbamimidoyl-2-j [2-ethoxy-2-(2-fluoro-4-methoxy-phenyl)-acetylamino]-methyl)-phenylamino)-acetic acid acetate] as the molecule, how does the Ki read?
A: 121 nM

Q: How did the Ki turn out when `CCOC(C(=O)NCc1c(F)cc(C(=N)N)cc1F)c1c(F)cc(-c2ccc(N)nc2)cc1F` (racemic) [Example 336.2, (RS)-2-[4-(6-amino-pyridin-3-yl)-2,6-difluoro-phenyl]-N-(4-carbamimidoyl-2,6-difluoro-benzyl)-2-ethoxy-acetamide acetate] was run?
A: 598 nM

Q: How did the Ki turn out when “(RS)-(4-carbamimidoyl-2-carbamoylmethoxy-benzyl)-2-[2,6-difluoro-4-(pyridin-2-ylmethoxy)-phenyl]-2-ethoxy-acetamide hydrochloride [Example 335.5]” was run?
A: 17 nM

Q: With “(RS)-{4-Carbamimidoyl-2-[(pyridin-2-ylmethyl)-amino]-benzyl}-2-ethoxy-2-(2-fluoro-4-methoxy-phenyl)-acetamide hydrochloride [Example 325]” as the molecule, how does the Ki read?
A: 77 nM
